Key:
[1] = system: human trabecular meshwork (HTM) cells; assay: HTM cell culture medium, extracellular proteins (dot blot); assay type: cell-based; conditions: dexamethasone
Procedure: (§1) HTM Treatments: Low passage number human trabecular meshwork (HTM) cells were cultured in DMEM supplemented with 10% fetal bovine serum and 1% penicillin/streptomycin. HTM cells were treated for 10 days (replaced every 2-3 days) with 100 nM dexamethasone. HTM cells were validated by expression of myocilin under these conditions.
(§2) Western and Dot Blots: Anterior eye segments and HTM cells were lysed in RIPA buffer. HTM lysates were separated by SDS-PAGE and transferred to a PVDF membrane. Lysates and culture media for dot blots were applied to a nitrocellulose membrane. Blots were blocked in 7% non-fat milk solution. Myocilin antibody was provided by W. D. Stamer. Collagen I and Fibronectin antibodies were purchased from Santa Cruz Biotechnology. Actin antibody was purchased from Sigma Aldrich (St. Louis, Mo.). Blots were developed using species specific secondary antibodies from Southern Biotech.
(§3) Quantification and Statistical Analysis: Two-tailed student's t-test and two-way ANOVA with Bonferroni's post-hoc tests were used as detailed in the figure legends. Values were considered significant if p<0.05. Graphs were generated using GraphPad Prism 5.0 analysis software or Microsoft Excel. N-value in this study is depicted as number of animals or number of eyes where indicated. Graphs are plotted as ±SEM or % CV as indicated.

Wild-type (WT) mice = assay: Mouse model of steroid-induced glaucoma, IOP by rebound tonometer, WT mice; assay type: in vivo; conditions: 0.1% dexamethasone topically to the eye three times per day
Procedure: A cohort of 35 animals from separate litters were used for this study; 20 male mice (10 WT and 10 Myoc-KO) and 15 female mice (8 WT and 7 Myoc-KO). […] Technicians performing the drug delivery and tonometry measurements were blinded for animal genotype as well as each compound and the respective vehicle treatment. […] The drop was allowed to sit on the eye for 1 minute before the mouse was returned to its cage. One drop of 0.1% Dexamethasone eye drops (Dexamethasone Sodium Phosphate Ophthalmic Solution USP, 0.1% Dexamethasone Phosphate Equivalent; Bauch and Lomb) or PBS (vehicle) was applied to each eye. Dexamethasone treatments were conducted at 6:30 AM, 9 AM, and 2 PM, every day.
IOP Measurements: IOP levels in the mouse eye were obtained using the Icare TonoLab rebound tonometer and their guidelines were followed (Icare, Finland). Measurements were taken at LOAM to control for diurnal fluctuations in IOP levels which occur throughout the day. Mice were anesthetized with 3-4% isoflurane in oxygen once a week. After mice were sufficiently anesthetized, the mice were placed in an open restraint platform and IOP measurements were taken for each eye. […]

mutant myocilin = assay: Cellular studies of mutant myocilin degradation; assay type: cell-based
[2] = system: human trabecular meshwork (HTM) cells; assay: HTM cell lysates, intracellular Collagen I and Fibronectin (Western blot); assay type: cell-based
Procedure: as §1, §2, §3

[3] = system: ECM components (Collagen I, Fibronectin); assay: ECM components in lysates of anterior eye sections of SIG model mice (dot blot / Western blot); assay type: in vivo, mouse; conditions: dex & 4Br-BnIm treated group; overall not statistically significant
Excerpt: Animal Husbandry: Mice were housed and bred at the University of South Florida Byrd Alzheimer's Institute. All animal procedures performed in this study followed the ARVO Statement for the Use of Animals in Ophthalmic and Vision Research and were approved by the University of South Florida Institutional Animal Care and Use Committee. A cohort of 35 animals from separate litters were used for this study; 20 male mice (10 WT and 10 Myoc-KO) and 15 female mice (8 WT and 7 Myoc-KO). […] Technicians performing the drug delivery and tonometry measurements were blinded for animal genotype as well as each compound and the respective vehicle treatment. […] No other treatment groups or geneotypes suffered losses. One WT animal on the Dex+4Br—BnIm study began the study with only one eye. […] 4Br—BnIm treatment dose was based on previous studies. […] The drop was allowed to sit on the eye for 1 minute before the mouse was returned to its cage. One drop of 0.1% Dexamethasone eye drops (Dexamethasone Sodium Phosphate Ophthalmic Solution USP, 0.1% Dexamethasone Phosphate Equivalent; Bauch and Lomb) or PBS (vehicle) was applied to each eye. Dexamethasone treatments were conducted at 6:30 AM, 9 AM, and 2 PM, every day. […]
Quantification and Statistical Analysis: Two-tailed student's t-test and two-way ANOVA with Bonferroni's post-hoc tests were used as detailed in the figure legends. […]

[4] = HTM cells treated with dex, 24 hours after Grp94 inhibitor treatment
[5] = HTM cells, 4Br-BnIm in the absence of dexamethasone

SMILES	increase of extracellular myocilin [1]	increase in IOP (Wild-type (WT) mice)	effect on toxic mutant myocilin (mutant myocilin)	intracellular Collagen I levels [2, 4]	intracellular Fibronectin levels [2, 4]	Intracellular Collagen I [2, 5]	Intracellular Fibronectin [2, 5]	Collagen I in anterior eye lysates [3]	Fibronectin in anterior eye lysates [3]
C[C@@H]1C[C@H]2[C@@H]3CCC4=CC(=O)C=C[C@]4(C)[C@@]3(F)[C@@H](O)C[C@]2(C)[C@@]1(O)C(=O)CO [dexamethasone]	over 500%	roughly 33%	–	–	–	–	–	–	–
COC(=O)c1c(O)cc(O)c(Cl)c1CCc1nccn1Cc1ccc(Br)cc1 [4Br—BnIm, methyl 2-(2-(1(4-bromobenzyl)-1H-imidazol-2-yl)ethyl)-3-chloro-4,6-dihydroxybenzoate]	–	–	degradation of toxic mutant myocilin	statistically significant decreases	statistically significant decreases	unchanged	unchanged	decrease in the mean values	decrease in the mean values

Source: US20210030719A1, “GRP94 INHIBITORS TO TREAT STEROID-INDUCED OCULAR HYPERTENSIONS AND GLAUCOMAS” (UNIVERSITY OF SOUTH FLORIDA, priority 2018, published 2021)
